What all share (assay type): cell-based
Assay [1] addresses T1, Sodium/nucleoside cotransporter 2 (Mus musculus) (UniProt O88627).
T1 sequence (whole entry): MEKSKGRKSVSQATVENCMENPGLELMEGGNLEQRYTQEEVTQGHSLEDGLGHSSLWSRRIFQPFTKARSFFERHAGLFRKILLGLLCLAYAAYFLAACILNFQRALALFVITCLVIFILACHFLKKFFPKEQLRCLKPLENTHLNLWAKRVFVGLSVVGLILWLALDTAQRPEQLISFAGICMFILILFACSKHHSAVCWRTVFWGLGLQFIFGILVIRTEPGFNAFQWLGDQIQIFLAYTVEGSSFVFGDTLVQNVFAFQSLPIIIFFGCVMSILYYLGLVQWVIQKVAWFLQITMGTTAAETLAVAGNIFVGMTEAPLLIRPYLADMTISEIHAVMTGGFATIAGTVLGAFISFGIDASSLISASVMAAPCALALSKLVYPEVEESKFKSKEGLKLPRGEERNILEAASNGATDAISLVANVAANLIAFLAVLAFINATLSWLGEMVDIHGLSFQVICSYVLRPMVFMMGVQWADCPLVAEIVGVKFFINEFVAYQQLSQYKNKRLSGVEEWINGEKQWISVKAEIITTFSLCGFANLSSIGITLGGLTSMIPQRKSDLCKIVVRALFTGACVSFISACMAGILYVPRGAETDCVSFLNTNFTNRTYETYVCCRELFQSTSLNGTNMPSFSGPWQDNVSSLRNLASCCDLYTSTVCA
Kind of assay: Transport through CNT2 in mouse hepatocytes by oil filtration assay in presence of sodium ions in Kreb-henseleit buffer. As to conditions: Hepatocyte.

The subject of assay [2] is Hepatocyte. Kind of assay: Transport through CNT1 in mouse hepatocytes by oil filtration assay in presence of sodium ions in Kreb-henseleit buffer.
The target of assay [3] is T2, Equilibrative nucleoside transporter 2 (Rattus norvegicus) (UniProt O54699).
T2 sequence (whole entry): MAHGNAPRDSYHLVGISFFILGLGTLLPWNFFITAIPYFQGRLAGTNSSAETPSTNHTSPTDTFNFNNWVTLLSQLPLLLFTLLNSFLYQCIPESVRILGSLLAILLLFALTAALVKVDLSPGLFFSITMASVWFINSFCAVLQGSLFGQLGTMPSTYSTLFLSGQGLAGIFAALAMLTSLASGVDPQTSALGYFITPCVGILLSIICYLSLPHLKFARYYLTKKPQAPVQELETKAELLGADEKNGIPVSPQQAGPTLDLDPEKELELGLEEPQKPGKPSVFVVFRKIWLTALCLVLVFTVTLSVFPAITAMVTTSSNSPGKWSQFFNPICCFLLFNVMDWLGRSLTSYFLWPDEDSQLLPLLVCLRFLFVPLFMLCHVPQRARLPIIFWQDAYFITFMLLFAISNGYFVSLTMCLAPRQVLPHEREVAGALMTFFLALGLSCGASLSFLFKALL
Kind of assay: Transport through ENT2 in rat hepatocytes by oil filtration assay in presence 100 uM of transporter inhibitor NBMRP. The settings on record: Hepatocyte.

The subject of assay [4] is Hepatocyte. Kind of assay: Transport through CNT3 in rat hepatocytes by oil filtration assay in presence of sodium ions in Kreb-henseleit buffer.
Assay [5] addresses T3, Sodium/nucleoside cotransporter 1 (Rattus norvegicus) (UniProt Q62674).
T3 sequence (whole entry): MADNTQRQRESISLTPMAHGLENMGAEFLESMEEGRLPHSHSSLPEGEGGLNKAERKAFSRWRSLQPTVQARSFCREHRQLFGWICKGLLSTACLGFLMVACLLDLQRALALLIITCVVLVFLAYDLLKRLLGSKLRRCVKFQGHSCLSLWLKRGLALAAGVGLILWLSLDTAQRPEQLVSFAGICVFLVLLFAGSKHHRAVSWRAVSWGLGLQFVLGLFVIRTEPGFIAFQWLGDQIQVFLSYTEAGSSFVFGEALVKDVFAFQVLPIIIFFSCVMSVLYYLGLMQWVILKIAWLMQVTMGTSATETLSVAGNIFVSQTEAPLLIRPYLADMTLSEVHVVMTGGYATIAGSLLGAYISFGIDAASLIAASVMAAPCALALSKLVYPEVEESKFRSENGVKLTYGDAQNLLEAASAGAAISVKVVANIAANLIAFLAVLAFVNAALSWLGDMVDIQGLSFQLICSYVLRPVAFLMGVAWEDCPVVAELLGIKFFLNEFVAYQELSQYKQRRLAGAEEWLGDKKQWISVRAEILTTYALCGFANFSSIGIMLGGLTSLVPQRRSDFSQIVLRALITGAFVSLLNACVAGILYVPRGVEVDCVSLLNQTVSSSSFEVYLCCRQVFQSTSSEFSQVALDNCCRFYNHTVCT
Kind of assay: Transport through CNT1 in rat hepatocytes by oil filtration assay in presence of sodium ions in Kreb-henseleit buffer containing 100 uM NBMPR and 1 mM uridine. As to conditions: Hepatocyte.

Assay [6] has as its target T4, Sodium/nucleoside cotransporter 2 (Rattus norvegicus) (UniProt Q62773).
T4 sequence (whole entry): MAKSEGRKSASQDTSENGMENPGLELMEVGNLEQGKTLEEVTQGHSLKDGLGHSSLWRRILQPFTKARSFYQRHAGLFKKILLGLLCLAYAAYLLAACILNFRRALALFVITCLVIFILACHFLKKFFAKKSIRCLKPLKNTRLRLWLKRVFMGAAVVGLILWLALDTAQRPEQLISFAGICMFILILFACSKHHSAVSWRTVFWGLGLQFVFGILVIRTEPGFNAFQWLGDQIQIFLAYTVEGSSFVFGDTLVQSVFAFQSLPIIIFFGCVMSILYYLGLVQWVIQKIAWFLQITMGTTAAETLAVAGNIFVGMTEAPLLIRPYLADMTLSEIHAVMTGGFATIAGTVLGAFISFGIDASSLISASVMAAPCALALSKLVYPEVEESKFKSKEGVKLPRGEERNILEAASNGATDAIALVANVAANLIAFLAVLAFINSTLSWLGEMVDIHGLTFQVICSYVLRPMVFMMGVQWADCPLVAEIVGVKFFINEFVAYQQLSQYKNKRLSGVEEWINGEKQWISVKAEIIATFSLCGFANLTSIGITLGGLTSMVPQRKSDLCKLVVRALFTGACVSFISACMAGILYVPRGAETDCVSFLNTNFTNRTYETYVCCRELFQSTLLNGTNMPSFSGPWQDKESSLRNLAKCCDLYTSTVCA
Kind of assay: Transport through CNT2 in rat hepatocytes by oil filtration assay in presence of sodium ions in Kreb-henseleit buffer. As to conditions: Hepatocyte.

Assay [7] has as its target T2, Equilibrative nucleoside transporter 2 (Rattus norvegicus). Kind of assay: Transport through ENT2 in rat hepatocytes by oil filtration assay in presence of sodium ions in Kreb-henseleit buffer containing 100 uM NBMPR and 1 mM uridine. The settings on record: Hepatocyte.

The source made the active and inactive calls. The calls are words filed in the database; no cut-off is given here.

On to `Nc1ncnc2c1ncn2[C@@H]1O[C@H](CO)[C@@H](O)[C@H]1O`, for which the outcome (in assay [1]; in the assay on Hepatocyte [2]; in assay [3]; in assay [5]; in assay [7]) was inactive. In addition, the outcome (in the assay on Hepatocyte [4]; in assay [6]) was Active.
As for `NC(=O)c1ncn([C@@H]2O[C@H](CO)[C@@H](O)[C@H]2O)n1`, the outcome (in assay [1]; in the assay with Hepatocyte [2]; in assay [3]; in assay [5]; in assay [7]) was inactive. Besides, the outcome (in the assay with Hepatocyte [4]; in assay [6]) was Active.

These data come from ChEMBL document CHEMBL1275601, “Striking species difference in the contribution of concentrative nucleoside transporter 2 to nucleoside uptake between mouse and rat hepatocytes” (Antimicrob Agents Chemother, 2010).
